# Source: patent publication US7824680B2, “Methods for inhibiting angiogenesis” (The Regents of the University of California, priority 2001, dated 2010)
# Tested on: mice
# Test: Murine bFGF matrigel plug angiogenesis, lectin-FITC fluorescence
# Format: in vivo
# Details: bFGF matrigel s.c. containing 25 μg/ml antibody or 1 mM peptide; 72 hours
# Protocol: Angiogenesis was induced by subcutaneous injection of 400 μl of growth factor depleted matrigel supplemented 0.4 μg/ml bFGF and saline, 25 μg/ml function blocking anti-α4β1 antibodies or control antibodies. Alternatively, mice were injected with matrigel containing bFGF and 1 mM of the sequence EILDVPST (SEQ ID NO:52) or the control sequence EILEVPST (SEQ ID NO:53). After 72 hours, mice were injected with Bandiera Simplicifolia lectin-FITC conjugate. After 15 minutes, matrigel plugs were excised and homogenized. Fluorescence intensity within the lysed plug was determined and correlated with degree of angiogenesis as determined by standard immunohistochemical analyses.
sequence,measurement,value
EILDVPST [peptide antagonist of integrin α4β1],growth factor-stimulated angiogenesis (fluorescence intensity within the lysed matrigel plug),selectively and specifically inhibited
